Article PMC8445441, “Elucidating the mechanism by which synthetic helper peptides sensitize Pseudomonas aeruginosa to multiple antibiotics” (PLoS Pathogens, 2021)

Tests used:
PAO1 in human blood = assay: Antimicrobial activity in blood (ex vivo bacteremia model); type: cell-based, Pseudomonas aeruginosa; conditions: for duration of control of the infection in blood: human blood infected with PAO1, in the presence of 4 μM D-11; for antibacterial effect in blood (in words): human blood, 5×10^7 CFU/mL PAO1, antibiotic combined with D-11 (4 μM), 4 hours
Method: Human blood of healthy individuals was obtained from Sanquin (certified Dutch organization responsible for meeting the need in healthcare for blood and blood products, https://www.sanquin.nl/) and was infected with 5×10^7 CFU/mL of PAO1. The blood was distributed at 0.5 mL in 2 mL Eppendorf tubes and treated with the antibiotics and peptides at the indicated concentrations at 37 °C for 4 hours. The samples were decimal serially diluted in PBS. Drops of 10 μL of each dilution on LB agar to track the development of infection. The experiment was performed in triplicate.

P. aeruginosa PAO1 = assay: Cutaneous mouse abscess infection model; type: in vivo; conditions: BALB/c mice, PAO1 2×10^7 CFU; single dose; azithromycin 7.5, chloramphenicol 8, doxycycline 2 mg/kg, each with D-11 10 mg/kg; 20 h post infection
Method: The mouse cutaneous abscess infection model was performed as previously described with minor modifications. 8-week-old specific-pathogen-free female BALB/c mice were used in the experiment. Before infection, 80 μL of 7.5% chloral hydrate were injected intraperitoneally to anaesthetize the mice. PAO1 was grown to an OD600 of 1.0. The bacteria were collected by centrifugation and washed twice with saline. Then the bacteria were resuspended in saline at a concentration of 4 × 10^8 CFU/ml. 50 μL of the bacterial suspension were injected into the right side of the dorsum of the mouse, resulting in 2 × 10^7 CFU per mouse. 30 minutes after the infection, 50 μL saline alone or containing indicated concentration of antibiotic or 10 mg/kg D-11, or a combination of antibiotic and 10 mg/kg D-11 was injected into the infected area. 20 hours post infection, the skin abscess was excised and subjected to homogenization in saline. The live bacteria numbers were determined by plating.

SMILES | duration of control of the infection in blood (PAO1 in human blood) | reductions of CFU in the abscess compared to each individual antibiotic (P. aeruginosa PAO1) | antibacterial effect in blood (in words) (PAO1 in human blood)
CC[C@H]1OC(=O)[C@H](C)[C@@H](O[C@H]2C[C@@](C)(OC)[C@@H](O)[C@H](C)O2)[C@H](C)[C@@H](O[C@@H]2O[C@H](C)C[C@H](N(C)C)[C@H]2O)[C@](C)(O)C[C@@H](C)CN(C)[C@H](C)[C@@H](O)[C@]1(C)O [Azithromycin] | more than 24 hours | 2–3 log10 | –
O=C(N[C@H](CO)[C@H](O)c1ccc([N+](=O)[O-])cc1)C(Cl)Cl [Chloramphenicol] | more than 24 hours | 2–3 log10 | best antibacterial effects
CC[C@H]1OC(=O)[C@H](C)[C@@H](O[C@H]2C[C@@](C)(OC)[C@@H](O)[C@H](C)O2)[C@H](C)[C@@H](O[C@@H]2O[C@H](C)C[C@H](N(C)C)[C@H]2O)[C@](C)(OC)C[C@@H](C)C(=O)[C@H](C)[C@@H](O)[C@]1(C)O [Clarithromycin] | more than 24 hours | – | –
CO[C@H]1[C@H](OC(=O)c2ccc(C)[nH]2)[C@H](O)[C@@H](Oc2ccc3c(O)c(NC(=O)c4c[nH]c(C(=O)Nc5c(O)c6ccc(O[C@H]7OC(C)(C)[C@@H](OC)[C@H](OC(=O)c8ccc(C)[nH]8)[C@@H]7O)c(C)c6oc5=O)c4C)c(=O)oc3c2C)OC1(C)C [Coumermycin A1] | – | – | relative week antibacterial effects
C[C@H]1c2cccc(O)c2C(=O)C2=C(O)[C@]3(O)C(=O)C(C(N)=O)=C(O)[C@@H](N(C)C)[C@@H]3[C@@H](O)[C@@H]21 [Doxycycline] | more than 24 hours | 2–3 log10 | best antibacterial effects
CO[C@@H]1[C@@H](OC(N)=O)[C@@H](O)[C@H](Oc2ccc3c(O)c(NC(=O)c4ccc(O)c(CC=C(C)C)c4)c(=O)oc3c2C)OC1(C)C [Novobiocin] | – | – | relative week antibacterial effects
CO[C@H]1/C=C/O[C@@]2(C)Oc3c(C)c(O)c4c(O)c(c(/C=N/N5CCN(C)CC5)c(O)c4c3C2=O)NC(=O)/C(C)=C\C=C\[C@H](C)[C@H](O)[C@@H](C)[C@@H](O)[C@@H](C)[C@H](OC(C)=O)[C@@H]1C [Rifampicin] | – | – | best antibacterial effects
